{"source": "patent US8691865B2", "about": "(AbbVie Inc., priority 2008, dated 2014)", "data": [{"target": "human Cav2.2 (Homo sapiens, UniProt Q00975)", "sequence (Q00975 whole entry)": "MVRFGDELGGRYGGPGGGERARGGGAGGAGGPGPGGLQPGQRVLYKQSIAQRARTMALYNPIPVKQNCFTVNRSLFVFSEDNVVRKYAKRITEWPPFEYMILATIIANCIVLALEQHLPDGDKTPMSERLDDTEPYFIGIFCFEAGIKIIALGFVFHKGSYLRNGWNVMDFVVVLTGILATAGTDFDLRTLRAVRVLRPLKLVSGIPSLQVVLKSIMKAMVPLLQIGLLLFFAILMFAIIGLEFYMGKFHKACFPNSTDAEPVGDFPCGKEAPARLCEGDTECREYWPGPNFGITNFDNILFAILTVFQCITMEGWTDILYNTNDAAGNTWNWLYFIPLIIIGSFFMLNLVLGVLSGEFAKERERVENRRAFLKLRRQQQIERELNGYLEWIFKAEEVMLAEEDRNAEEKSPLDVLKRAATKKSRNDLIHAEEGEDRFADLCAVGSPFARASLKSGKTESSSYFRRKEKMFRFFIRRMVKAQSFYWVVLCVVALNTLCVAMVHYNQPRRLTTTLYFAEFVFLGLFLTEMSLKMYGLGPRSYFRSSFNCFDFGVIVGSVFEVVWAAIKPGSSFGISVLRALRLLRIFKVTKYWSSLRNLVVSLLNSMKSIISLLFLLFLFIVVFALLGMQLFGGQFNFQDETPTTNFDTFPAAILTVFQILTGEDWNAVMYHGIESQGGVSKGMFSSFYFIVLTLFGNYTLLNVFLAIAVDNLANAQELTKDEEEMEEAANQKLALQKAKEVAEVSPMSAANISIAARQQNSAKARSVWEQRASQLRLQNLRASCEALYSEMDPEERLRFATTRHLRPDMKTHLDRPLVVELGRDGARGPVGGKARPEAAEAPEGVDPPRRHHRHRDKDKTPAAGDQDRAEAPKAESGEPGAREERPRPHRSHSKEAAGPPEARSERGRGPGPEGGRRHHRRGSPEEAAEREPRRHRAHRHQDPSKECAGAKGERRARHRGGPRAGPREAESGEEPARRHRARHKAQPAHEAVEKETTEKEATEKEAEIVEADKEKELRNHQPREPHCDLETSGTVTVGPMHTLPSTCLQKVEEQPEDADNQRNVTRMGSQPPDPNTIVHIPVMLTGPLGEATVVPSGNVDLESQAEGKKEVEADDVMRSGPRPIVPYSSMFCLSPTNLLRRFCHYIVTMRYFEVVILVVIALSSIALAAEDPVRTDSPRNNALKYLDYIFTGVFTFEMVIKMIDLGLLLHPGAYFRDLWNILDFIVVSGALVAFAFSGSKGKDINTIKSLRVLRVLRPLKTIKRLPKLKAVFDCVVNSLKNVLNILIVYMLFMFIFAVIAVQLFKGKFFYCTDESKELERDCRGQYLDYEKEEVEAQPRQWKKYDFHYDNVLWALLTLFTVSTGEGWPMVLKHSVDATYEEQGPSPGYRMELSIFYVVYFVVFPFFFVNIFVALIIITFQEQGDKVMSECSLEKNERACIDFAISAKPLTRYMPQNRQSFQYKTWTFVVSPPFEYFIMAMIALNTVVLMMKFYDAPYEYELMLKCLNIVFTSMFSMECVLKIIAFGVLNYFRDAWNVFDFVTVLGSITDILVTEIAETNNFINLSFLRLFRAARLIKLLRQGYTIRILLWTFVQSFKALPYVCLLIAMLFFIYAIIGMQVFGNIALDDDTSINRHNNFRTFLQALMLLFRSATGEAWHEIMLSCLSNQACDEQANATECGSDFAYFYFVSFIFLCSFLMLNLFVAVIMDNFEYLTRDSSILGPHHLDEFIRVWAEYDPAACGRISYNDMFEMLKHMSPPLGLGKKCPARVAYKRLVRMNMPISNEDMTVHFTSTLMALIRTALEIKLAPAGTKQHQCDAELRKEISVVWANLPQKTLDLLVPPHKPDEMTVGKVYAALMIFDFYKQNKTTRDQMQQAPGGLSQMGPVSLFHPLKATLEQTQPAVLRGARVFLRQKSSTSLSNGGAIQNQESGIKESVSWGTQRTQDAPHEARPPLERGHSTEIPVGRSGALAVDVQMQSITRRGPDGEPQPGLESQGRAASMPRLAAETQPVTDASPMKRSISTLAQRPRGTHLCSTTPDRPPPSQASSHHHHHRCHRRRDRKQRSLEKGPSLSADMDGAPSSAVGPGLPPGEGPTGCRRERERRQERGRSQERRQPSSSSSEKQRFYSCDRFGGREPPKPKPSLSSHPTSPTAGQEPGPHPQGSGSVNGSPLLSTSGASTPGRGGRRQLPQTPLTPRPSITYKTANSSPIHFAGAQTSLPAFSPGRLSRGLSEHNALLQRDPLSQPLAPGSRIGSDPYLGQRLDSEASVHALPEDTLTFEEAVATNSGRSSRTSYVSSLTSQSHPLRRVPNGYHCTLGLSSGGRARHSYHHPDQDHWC", "sequence (P54289 25-956 partner limits assumed)": "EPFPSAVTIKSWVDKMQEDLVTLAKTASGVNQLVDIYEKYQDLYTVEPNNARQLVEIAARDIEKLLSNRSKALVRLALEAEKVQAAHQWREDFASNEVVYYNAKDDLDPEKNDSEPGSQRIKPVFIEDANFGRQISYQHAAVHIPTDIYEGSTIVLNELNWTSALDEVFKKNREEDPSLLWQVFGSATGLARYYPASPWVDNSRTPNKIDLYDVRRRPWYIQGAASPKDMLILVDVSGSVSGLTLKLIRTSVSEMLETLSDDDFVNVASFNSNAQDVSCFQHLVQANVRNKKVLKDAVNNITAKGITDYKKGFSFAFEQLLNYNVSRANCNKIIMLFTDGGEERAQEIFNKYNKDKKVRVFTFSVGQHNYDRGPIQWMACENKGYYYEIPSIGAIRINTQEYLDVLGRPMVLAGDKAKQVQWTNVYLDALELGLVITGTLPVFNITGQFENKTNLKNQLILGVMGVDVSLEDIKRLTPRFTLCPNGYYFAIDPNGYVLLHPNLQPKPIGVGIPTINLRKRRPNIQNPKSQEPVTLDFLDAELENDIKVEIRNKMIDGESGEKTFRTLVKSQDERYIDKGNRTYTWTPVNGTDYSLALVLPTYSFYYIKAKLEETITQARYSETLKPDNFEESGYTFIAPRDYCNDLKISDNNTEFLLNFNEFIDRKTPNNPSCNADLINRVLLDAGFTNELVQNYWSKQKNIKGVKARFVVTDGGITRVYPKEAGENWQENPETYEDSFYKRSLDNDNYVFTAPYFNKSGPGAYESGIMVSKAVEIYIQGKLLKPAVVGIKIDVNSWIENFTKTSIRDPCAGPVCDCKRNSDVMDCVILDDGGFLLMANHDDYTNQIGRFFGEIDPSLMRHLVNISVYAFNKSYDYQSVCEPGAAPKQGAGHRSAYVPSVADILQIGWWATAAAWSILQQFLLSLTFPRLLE", "sequence (P54289 957-1103 partner limits assumed)": "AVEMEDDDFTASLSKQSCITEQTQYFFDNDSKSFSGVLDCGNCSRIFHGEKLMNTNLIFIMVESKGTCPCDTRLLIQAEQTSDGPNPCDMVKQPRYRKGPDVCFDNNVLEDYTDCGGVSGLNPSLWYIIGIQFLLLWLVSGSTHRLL", "sequence (P54284 whole entry partner)": "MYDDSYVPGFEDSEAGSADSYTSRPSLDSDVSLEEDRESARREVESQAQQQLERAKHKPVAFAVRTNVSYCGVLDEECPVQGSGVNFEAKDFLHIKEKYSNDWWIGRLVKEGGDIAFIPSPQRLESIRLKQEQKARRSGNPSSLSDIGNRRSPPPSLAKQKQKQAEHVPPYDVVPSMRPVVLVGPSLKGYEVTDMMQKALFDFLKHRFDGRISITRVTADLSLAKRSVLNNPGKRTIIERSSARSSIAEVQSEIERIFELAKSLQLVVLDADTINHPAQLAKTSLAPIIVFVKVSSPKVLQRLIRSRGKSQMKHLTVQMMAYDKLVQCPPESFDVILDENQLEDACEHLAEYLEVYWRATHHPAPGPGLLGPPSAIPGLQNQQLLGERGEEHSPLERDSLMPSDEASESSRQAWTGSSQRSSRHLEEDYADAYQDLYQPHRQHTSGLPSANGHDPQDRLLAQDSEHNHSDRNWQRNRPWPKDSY", "assay": "Assessment of calcium channel activity using FLIPR (Ca2+ influx in IMR32 cells)", "format": "cell-based", "conditions": "not given", "protocol": "(§1) (i) In Vitro Methods—Assessment of Calcium Channel Activity Using FLIPR:\n(§2) The IMR32 cells were maintained in MEM media containing 10% (v/v) FBS, 1% (v/v) antibiotic/antimitotic, 1% (v/v) sodium pyruvate and 1% (v/v) MEM NEAA. Following dissociation in 0.05% (v/v) trypsin/EDTA, cells were seeded into black 1×96-well plates (Corning Cellbind) at a density of 1−1.2×10^5 cells/well and incubated in the maintenance media above for 48 hours at 37° C. […] To determine the IC50 values, the percent inhibition of the compound at each concentration was determined relative to the activity in the absence of inhibitor, and data was fitted using non-linear regression sigmoidal dose response curve analysis with GraphPad Prism®.", "units": {"IC50": "µM"}, "values": [{"smiles": "CN[C@@H](CC(C)C)C(=O)N[C@@H]1CC[C@H]2CN(S(=O)(=O)c3cccc(C(F)(F)F)c3)C[C@H]21", "note": "[Example 182, N^2-methyl-N^1-((3aS,4R,6aR)-2-{[3-(trifluoromethyl)phenyl]sulfonyl}octahydrocyclopenta[c]pyrrol-4-yl)-L-leucinamide]", "IC50": 1.45}, {"smiles": "O=C(N[C@@H]1CC[C@H]2CN(Cc3cccc(C(F)(F)F)c3)C[C@H]21)C(C1CCCCC1)C1CCCCC1", "note": "[Example 75, 2,2-dicyclohexyl-N-{(3aS,4R,6aR)-2-[3-(trifluoromethyl)benzyl]octahydrocyclopenta[c]pyrrol-4-yl}acetamide]", "IC50": 0.45}, {"smiles": "CC(C)C[C@@H](C(=O)N[C@H]1CC[C@@H]2CN(Cc3ccc(C(F)(F)F)cc3)C[C@@H]21)N(C)C(=O)OC(C)(C)C", "note": "[Example 308, tert-butyl methyl((S)-4-methyl-1-oxo-1-((3aR,4S,6aS)-2-(4-(trifluoromethyl)benzyl)octahydrocyclopenta[c]pyrrol-4-ylamino)pentan-2-yl)carbamate]", "IC50": 1.93}, {"smiles": "CC(C)C(C(=O)N[C@H]1CC[C@@H]2CN(Cc3cccc(C(F)(F)F)c3)C[C@@H]21)C(C)C", "note": "[Example 305, 2-isopropyl-3-methyl-N-{(3aR,4S,6aS)-2-[3-(trifluoromethyl)benzyl]octahydrocyclopenta[c]pyrrol-4-yl}butanamide]", "IC50": 1.63}, {"smiles": "O=C(N[C@H]1CC[C@@H]2CN(c3cccc(C(F)(F)F)n3)C[C@@H]21)[C@@H]1C[C@H](F)CN1", "note": "[Example 596, (4S)-4-fluoro-N-{(3aR,4S,6aS)-2-[6-(trifluoromethyl)pyridin-2-yl]octahydrocyclopenta[c]pyrrol-4-yl}-L-prolinamide]", "IC50": 4.47}, {"smiles": "CN[C@H](C(=O)N[C@H]1CC[C@@H]2CN(c3ccc(C(F)(F)F)cc3)C[C@@H]21)C(C)C", "note": "[Example 747, N^2-methyl-N-{(3aR,4S,6aS)-2-[4-(trifluoromethyl)phenyl]octahydrocyclopenta[c]pyrrol-4-yl}-L-valinamide]", "IC50": "> 9.5"}, {"smiles": "CC[C@H](C)[C@H](NC)C(=O)N[C@H]1CC[C@@H]2CN(Cc3ccccc3)C[C@@H]21", "note": "[Example 353, N^1-[(3aR,4S,6aS)-2-benzyloctahydrocyclopenta[c]pyrrol-4-yl]-N^2-methyl-L-isoleucinamide]", "IC50": "> 30"}, {"smiles": "O=C(N[C@H]1CC[C@@H]2CN(c3ccc(F)cc3C(F)(F)F)C[C@@H]21)[C@@H]1C[C@@H](F)CN1", "note": "[Example 698, (4R)-4-fluoro-N-{(3aR,4S,6aS)-2-[4-fluoro-2-(trifluoromethyl)phenyl]octahydrocyclopenta[c]pyrrol-4-yl}-L-prolinamide]", "IC50": 1.52}, {"smiles": "CN[C@@H](CC(C)C)C(=O)N[C@H]1CC[C@@H]2CN(c3ccc(Cl)cc3)C[C@@H]21", "note": "[Example 639, N-[(3aR,4S,6aS)-2-(4-chlorophenyl)octahydrocyclopenta[c]pyrrol-4-yl]-N^2-methyl-L-leucinamide]", "IC50": 7.77}, {"smiles": "Cn1c(CN[C@H]2CC[C@@H]3CN(c4cccc(C(F)(F)F)n4)C[C@@H]32)cc2ccccc21", "note": "[Example 720, (3aR,4S,6aS)-N-[(1-methyl-1H-indol-2-yl)methyl]-2-[6-(trifluoromethyl)pyridin-2-yl]octahydrocyclopenta[c]pyrrol-4-amine]", "IC50": 1.44}, {"smiles": "O=C(N[C@@H]1CC[C@@H]2CN(Cc3ccccc3)C[C@@H]21)C(c1ccccc1)C1CCCCC1", "note": "(relative stereo) [Example 3, N-[(3aR*,4R*,6aS*)-2-benzyloctahydrocyclopenta[c]pyrrol-4-yl]-2-cyclohexyl-2-phenylacetamide]", "IC50": 1.06}, {"smiles": "CC[C@H](N)C(=O)N[C@H]1CC[C@@H]2CN(c3ccc(C(F)(F)F)cc3)C[C@@H]21", "note": "[Example 755, (2S)-2-amino-N-{(3aR,4S,6aS)-2-[4-(trifluoromethyl)phenyl]octahydrocyclopenta[c]pyrrol-4-yl}butanamide]", "IC50": "> 3"}, {"smiles": "O=C(Nc1ccc(F)c(Cl)c1)N[C@H]1CC[C@@H]2CN(c3cccc(C(F)(F)F)n3)C[C@@H]21", "note": "[Example 714, 1-(3-chloro-4-fluorophenyl)-3-{(3aR,4S,6aS)-2-[6-(trifluoromethyl)pyridin-2-yl]octahydrocyclopenta[c]pyrrol-4-yl}urea]", "IC50": 2.8}, {"smiles": "CC(C)C[C@@H](C(=O)N[C@@H]1CC[C@H]2CN(Cc3ccccc3)C[C@H]21)N1CCCC1", "note": "[Example 250, (2S)-N-[(3aS,4R,6aR)-2-benzyloctahydrocyclopenta[c]pyrrol-4-yl]-4-methyl-2-pyrrolidin-1-ylpentanamide]", "IC50": "> 30"}, {"smiles": "O=C(N[C@H]1CC[C@@H]2CN(c3cccc(C(F)(F)F)n3)C[C@@H]21)c1cc2occc2[nH]1", "note": "[Example 574, N-{(3aR,4S,6aS)-2-[6-(trifluoromethyl)pyridin-2-yl]octahydrocyclopenta[c]pyrrol-4-yl}-4H-furo[3,2-b]pyrrole-5-carboxamide]", "IC50": 1.38}, {"smiles": "CN[C@@H](CC(C)C)C(=O)N[C@H]1CC[C@@H]2CN(c3cccc(SC(F)(F)F)c3)C[C@@H]21", "note": "[Example 712, N^2-methyl-N-[(3aR,4S,6aS)-2-{3-[(trifluoromethyl)thio]phenyl]octahydrocyclopenta[c]pyrrol-4-yl}-L-leucinamide]", "IC50": 1.01}, {"smiles": "O=C(N[C@H]1CC[C@H]2CN(Cc3cccc(C(F)(F)F)c3)C[C@H]21)C1CCCCCC1", "note": "(relative stereo) [Example 128, N-{(3aS*,4S*,6aR*)-2-[3-(trifluoromethyl)benzyl]octahydrocyclopenta[c]pyrrol-4-yl}cycloheptanecarboxamide]", "IC50": 0.56}, {"smiles": "Cc1cccc2c(CN[C@H]3CC[C@@H]4CN(c5cccc(C(F)(F)F)n5)C[C@@H]43)c[nH]c12", "note": "[Example 671, (3aR,4S,6aS)-N-[(7-methyl-1H-indol-3-yl)methyl]-2-[6-(trifluoromethyl)pyridin-2-yl]octahydrocyclopenta[c]pyrrol-4-amine]", "IC50": 1.53}, {"smiles": "CC(C)(C)NC(=O)N[C@H]1CC[C@@H]2CN(c3cccc(OC(F)(F)F)c3)C[C@@H]21", "note": "[Example 779, 1-tert-butyl-3-{(3aR,4S,6aS)-2-[3-(trifluoromethoxy)phenyl]octahydrocyclopenta[c]pyrrol-4-yl}urea]", "IC50": 1.86}]}, {"target": "human Cav2.2 (Homo sapiens, UniProt Q00975)", "assay": "Assessment of calcium channel activity using FLIPR (Ca2+ influx in IMR32 cells)", "format": "cell-based", "conditions": "read-out: IC50 (μM) or percent inhibition (* indicates 3 minute incubation, otherwise 60 minute); IC50; 60 minute pre-incubation with compound; IMR32 cells, 80 mM KCl depolarization", "protocol": "as §1, §2", "units": {"IC50": "µM"}, "values": [{"smiles": "O=C(CC(c1ccc(F)cc1)c1ccc(F)cc1)N[C@@H]1CC[C@H]2CN(Cc3cccc(C(F)(F)F)c3)C[C@H]21", "note": "(relative stereo) [Example 143, 3,3-bis(4-fluorophenyl)-N-{(3aS*,4R*,6aR*)-2-[3-(trifluoromethyl)benzyl]octahydrocyclopenta[c]pyrrol-4-yl}propanamide]", "IC50": 0.61}, {"smiles": "CN[C@@H](CC(C)C)C(=O)N[C@H]1CC[C@H]2CN(Cc3cccc(C(F)(F)F)c3)C[C@H]21", "note": "[Example 164, N^2-methyl-N^1-{(3aS,4S,6aR)-2-[3-(trifluoromethyl)benzyl]octahydrocyclopenta[c]pyrrol-4-yl}-L-leucinamide]", "IC50": 1.64}, {"smiles": "O=C(N[C@@H]1CC[C@H]2CN(C(c3ccccc3)c3ccccc3)C[C@H]21)C(C1CCCCC1)C1CCCCC1", "note": "[Example 121, N-[(3aS,4R,6aR)-2-benzhydryloctahydrocyclopenta[c]pyrrol-4-yl]-2,2-dicyclohexylacetamide]", "IC50": 14.3}, {"smiles": "CN[C@@H](CC(C)(C)C)C(=O)N(C)[C@H]1CC[C@@H]2CN(S(=O)(=O)c3ccc(C(F)(F)F)cc3Cl)C[C@@H]21", "note": "[Example 439, N^1-((3aR,4S,6aS)-2-{[2-chloro-4-(trifluoromethyl)phenyl]sulfonyl}octahydrocyclopenta[c]pyrrol-4-yl)-N^1,N^2,4-trimethyl-L-leucinamide]", "IC50": 1.42}, {"smiles": "O=C(CCCC(c1ccc(F)cc1)c1ccc(F)cc1)N[C@H]1CC[C@H]2CN(Cc3cccc(C(F)(F)F)c3)C[C@H]21", "note": "(relative stereo) [Example 132, 5,5-bis(4-fluorophenyl)-N-{(3aS*,4S*,6aR*)-2-[3-(trifluoromethyl)benzyl]octahydrocyclopenta[c]pyrrol-4-yl}pentanamide]", "IC50": 1.13}, {"smiles": "CC(C)(C)C[C@H](NCC1CC1)C(=O)N[C@H]1CC[C@@H]2CN(c3cccc(C(F)(F)F)n3)C[C@@H]21", "note": "[Example 479, N^2-(cyclopropylmethyl)-4-methyl-N^1-{(3aR,4S,6aS)-2-[6-(trifluoromethyl)pyridin-2-yl]octahydrocyclopenta[c]pyrrol-4-yl}-L-leucinamide]", "IC50": 0.26}, {"smiles": "CC(C)C[C@H](N)C(=O)N[C@H]1CC[C@H]2CN(Cc3cccc(C(F)(F)F)c3)C[C@H]21", "note": "(stereo in doubt) [Example 158, N^1-{(3aS*,4S*,6aR*)-2-[3-(trifluoromethyl)benzyl]octahydrocyclopenta[c]pyrrol-4-yl}-L-leucinamide]", "IC50": 3.51}, {"smiles": "CCC[C@H](NC)C(=O)N[C@H]1CC[C@@H]2CN(S(=O)(=O)c3ccc(C#N)cc3)C[C@@H]21", "note": "[Example 536, N^1-{(3aR,4S,6aS)-2-[(4-cyanophenyl)sulfonyl]octahydrocyclopenta[c]pyrrol-4-yl}-N^2-methyl-L-norvalinamide]", "IC50": 8.37}, {"smiles": "CN[C@H](CC(C)C)C(=O)N[C@@H]1CC[C@H]2CN(Cc3cccc(C(F)(F)F)c3)C[C@H]21", "note": "(relative stereo) [Example 163, N^2-methyl-N^1-{(3aS*,4R*,6aR*)-2-[3-(trifluoromethyl)benzyl]octahydrocyclopenta[c]pyrrol-4-yl}-D-leucinamide]", "IC50": 4.59}, {"smiles": "CC(C)C[C@@H](NC(=O)OC(C)(C)C)C(=O)N[C@@H]1CC[C@H]2CN(Cc3cccc(C(F)(F)F)c3)C[C@H]21", "note": "(relative stereo) [Example 149, N^2-(tert-butyloxycarbonyl)-N^1-{(3aS*,4R*,6aR*)-2-[3-(trifluoromethyl)benzyl]octahydrocyclopenta[c]pyrrol-4-yl}-D-leucinamide]", "IC50": 0.62}]}]}
